Reference: paper PMC11822212, “High-throughput screening identifies Aurora kinase B as a critical therapeutic target for Merkel cell carcinoma” (Nature Communications, 2025)
“And” between values parts separate entries of the source, which are not always exact repeats. Equal entries are not always repeated. Where two headings read alike, the source gives them in different places.

Assays:
Assay in all cases: qHTS cell viability (CellTiter-Glo, 72 h; primary and follow-up small molecule screen)
Format in all cases: cell-based, human
MCC13 cells (VN-MCC) = tested on: MCC13 cells (VN-MCC)
MCC26 cells (VN-MCC) = tested on: MCC26 cells (VN-MCC)
UISO cells (VN-MCC) = tested on: UISO cells (VN-MCC)
WAGA cells (VP-MCC) = tested on: WAGA cells (VP-MCC)
MKL-1 cells (VP-MCC) = tested on: MKL-1 cells (VP-MCC)
MKL-2 cells (VP-MCC) = tested on: MKL-2 cells (VP-MCC)
[1] = follow-up screen, MCC13, replicate 1
[2] = follow-up screen, MCC13, replicate 2
[3] = follow-up screen, MCC13, replicate 3
[4] = follow-up screen, MCC26, replicate 1
[5] = follow-up screen, MCC26, replicate 2
[6] = follow-up screen, MCC26, replicate 3
[7] = follow-up screen, UISO, replicate 1
[8] = follow-up screen, UISO, replicate 2
[9] = follow-up screen, UISO, replicate 3
[10] = follow-up screen, WAGA, replicate 1
[11] = follow-up screen, WAGA, replicate 2
[12] = follow-up screen, WAGA, replicate 3
[13] = follow-up screen, MKL-1, replicate 1
[14] = follow-up screen, MKL-1, replicate 2
[15] = follow-up screen, MKL-1, replicate 3
[16] = follow-up screen, MKL-2, replicate 1
[17] = follow-up screen, MKL-2, replicate 2
[18] = follow-up screen, MKL-2, replicate 3

## O[C@H]1[C@H]2[C@H](O)CCCN2C[C@H]1O [Swainsonine]
MCC13 cells (VN-MCC)
  Area under the dose-response curve (AUC) MCC13 Replicate 1: 474.5
  Area under the dose-response curve (AUC) MCC13 Replicate 2: 467.6
  Area under the dose-response curve (AUC) MCC13 Replicate 3: 453.7
MCC26 cells (VN-MCC)
  Area under the dose-response curve (AUC) MCC26 Replicate 1: 425.6
  Area under the dose-response curve (AUC) MCC26 Replicate 2: 420.4
  Area under the dose-response curve (AUC) MCC26 Replicate 3: 449.5
UISO cells (VN-MCC)
  Area under the dose-response curve (AUC) UISO Replicate 1: 446.0
  Area under the dose-response curve (AUC) UISO Replicate 2: 458.3
  Area under the dose-response curve (AUC) UISO Replicate 3: 417.9
WAGA cells (VP-MCC)
  Area under the dose-response curve (AUC) WAGA Replicate 1: 517.4
  Area under the dose-response curve (AUC) WAGA Replicate 2: 504.3
  Area under the dose-response curve (AUC) WAGA Replicate 3: 463.6
MKL-1 cells (VP-MCC)
  Area under the dose-response curve (AUC) MKL-1 Replicate 1: 483.5
  Area under the dose-response curve (AUC) MKL-1 Replicate 2: 459.4
  Area under the dose-response curve (AUC) MKL-1 Replicate 3: 455.2
MKL-2 cells (VP-MCC)
  Area under the dose-response curve (AUC) MKL-2 Replicate 1: 462.0
  Area under the dose-response curve (AUC) MKL-2 Replicate 2: 456.2
  Area under the dose-response curve (AUC) MKL-2 Replicate 3: 445.8

## COc1ccc2c(c[n+](C)c3c4cc5c(cc4ccc23)OCO5)c1OC [Chelerythrine chloride]
MCC13 cells (VN-MCC); [1]
  Area under the dose-response curve (AUC) MCC13 Replicate 1: 404.1
MCC13 cells (VN-MCC); [2]
  Area under the dose-response curve (AUC) MCC13 Replicate 2: 410.9
MCC13 cells (VN-MCC); [3]
  Area under the dose-response curve (AUC) MCC13 Replicate 3: 433.8
MCC26 cells (VN-MCC); [4]
  Area under the dose-response curve (AUC) MCC26 Replicate 1: 384.2
MCC26 cells (VN-MCC); [5]
  Area under the dose-response curve (AUC) MCC26 Replicate 2: 379.8
MCC26 cells (VN-MCC); [6]
  Area under the dose-response curve (AUC) MCC26 Replicate 3: 390.1
UISO cells (VN-MCC); [7]
  Area under the dose-response curve (AUC) UISO Replicate 1: 417.2
UISO cells (VN-MCC); [8]
  Area under the dose-response curve (AUC) UISO Replicate 2: 419.6
UISO cells (VN-MCC); [9]
  Area under the dose-response curve (AUC) UISO Replicate 3: 390.8
WAGA cells (VP-MCC); [10]
  Area under the dose-response curve (AUC) WAGA Replicate 1: 387.5
WAGA cells (VP-MCC); [11]
  Area under the dose-response curve (AUC) WAGA Replicate 2: 415.9
WAGA cells (VP-MCC); [12]
  Area under the dose-response curve (AUC) WAGA Replicate 3: 372.6
MKL-1 cells (VP-MCC); [13]
  Area under the dose-response curve (AUC) MKL-1 Replicate 1: 325.9
MKL-1 cells (VP-MCC); [14]
  Area under the dose-response curve (AUC) MKL-1 Replicate 2: 295.9
MKL-1 cells (VP-MCC); [15]
  Area under the dose-response curve (AUC) MKL-1 Replicate 3: 331.6
MKL-2 cells (VP-MCC); [16]
  Area under the dose-response curve (AUC) MKL-2 Replicate 1: 317.6
MKL-2 cells (VP-MCC); [17]
  Area under the dose-response curve (AUC) MKL-2 Replicate 2: 350.5
MKL-2 cells (VP-MCC); [18]
  Area under the dose-response curve (AUC) MKL-2 Replicate 3: 338.8

## CCOC(=O)c1cnc2ccc(-c3cncc(NS(=O)(=O)c4ccccc4)c3)cn12 [HS-173]
MCC13 cells (VN-MCC)
  Area under the dose-response curve (AUC): 410.4 and 416.6 and 423.4
MCC26 cells (VN-MCC)
  Area under the dose-response curve (AUC): 371.1 and 368.1 and 383.3
UISO cells (VN-MCC)
  Area under the dose-response curve (AUC): 373.6 and 378.4 and 376.1
WAGA cells (VP-MCC)
  Area under the dose-response curve (AUC): 390.4 and 391.0 and 384.0
MKL-1 cells (VP-MCC)
  Area under the dose-response curve (AUC): 400.2 and 402.4 and 398.2
MKL-2 cells (VP-MCC)
  Area under the dose-response curve (AUC): 425.2 and 393.3 and 372.1

## O=c1c(O)c(-c2ccccc2)oc2cc(O)cc(O)c12 [Galangin]
MCC13 cells (VN-MCC); [1]
  Area under the dose-response curve (AUC) MCC13 Replicate 1: 503.7
MCC13 cells (VN-MCC); [2]
  Area under the dose-response curve (AUC) MCC13 Replicate 2: 491.8
MCC13 cells (VN-MCC); [3]
  Area under the dose-response curve (AUC) MCC13 Replicate 3: 491.4
MCC26 cells (VN-MCC); [4]
  Area under the dose-response curve (AUC) MCC26 Replicate 1: 449.4
MCC26 cells (VN-MCC); [5]
  Area under the dose-response curve (AUC) MCC26 Replicate 2: 457.3
MCC26 cells (VN-MCC); [6]
  Area under the dose-response curve (AUC) MCC26 Replicate 3: 461.1
UISO cells (VN-MCC); [7]
  Area under the dose-response curve (AUC) UISO Replicate 1: 481.0
UISO cells (VN-MCC); [8]
  Area under the dose-response curve (AUC) UISO Replicate 2: 489.8
UISO cells (VN-MCC); [9]
  Area under the dose-response curve (AUC) UISO Replicate 3: 457.6
WAGA cells (VP-MCC); [10]
  Area under the dose-response curve (AUC) WAGA Replicate 1: 519.0
WAGA cells (VP-MCC); [11]
  Area under the dose-response curve (AUC) WAGA Replicate 2: 499.5
WAGA cells (VP-MCC); [12]
  Area under the dose-response curve (AUC) WAGA Replicate 3: 488.3
MKL-1 cells (VP-MCC); [13]
  Area under the dose-response curve (AUC) MKL-1 Replicate 1: 490.3
MKL-1 cells (VP-MCC); [14]
  Area under the dose-response curve (AUC) MKL-1 Replicate 2: 490.8
MKL-1 cells (VP-MCC); [15]
  Area under the dose-response curve (AUC) MKL-1 Replicate 3: 492.0
MKL-2 cells (VP-MCC); [16]
  Area under the dose-response curve (AUC) MKL-2 Replicate 1: 477.3
MKL-2 cells (VP-MCC); [17]
  Area under the dose-response curve (AUC) MKL-2 Replicate 2: 508.2
MKL-2 cells (VP-MCC); [18]
  Area under the dose-response curve (AUC) MKL-2 Replicate 3: 500.6

## AZD-4547
MCC13 cells (VN-MCC)
  Area under the dose-response curve (AUC): 385.3 and 349.5 and 390.1
MCC26 cells (VN-MCC)
  Area under the dose-response curve (AUC): 311.4 and 288.0 and 307.4
UISO cells (VN-MCC)
  Area under the dose-response curve (AUC): 337.7 and 347.0 and 331.2
WAGA cells (VP-MCC)
  Area under the dose-response curve (AUC): 425.9 and 443.6 and 367.2
MKL-1 cells (VP-MCC)
  Area under the dose-response curve (AUC): 362.7 and 390.5 and 360.0
MKL-2 cells (VP-MCC)
  Area under the dose-response curve (AUC): 380.8 and 390.1 and 354.8

## Phenylmercuric acetate
MCC13 cells (VN-MCC)
  Area under the dose-response curve (AUC) MCC13 Replicate 1: 405.8
  Area under the dose-response curve (AUC) MCC13 Replicate 2: 369.3
  Area under the dose-response curve (AUC) MCC13 Replicate 3: 386.0
MCC26 cells (VN-MCC)
  Area under the dose-response curve (AUC) MCC26 Replicate 1: 356.5
  Area under the dose-response curve (AUC) MCC26 Replicate 2: 359.6
  Area under the dose-response curve (AUC) MCC26 Replicate 3: 374.3
UISO cells (VN-MCC)
  Area under the dose-response curve (AUC) UISO Replicate 1: 343.0
  Area under the dose-response curve (AUC) UISO Replicate 2: 369.6
  Area under the dose-response curve (AUC) UISO Replicate 3: 334.3
WAGA cells (VP-MCC)
  Area under the dose-response curve (AUC) WAGA Replicate 1: 330.3
  Area under the dose-response curve (AUC) WAGA Replicate 2: 317.4
  Area under the dose-response curve (AUC) WAGA Replicate 3: 331.4
MKL-1 cells (VP-MCC)
  Area under the dose-response curve (AUC) MKL-1 Replicate 1: 287.3
  Area under the dose-response curve (AUC) MKL-1 Replicate 2: 286.9
  Area under the dose-response curve (AUC) MKL-1 Replicate 3: 280.4
MKL-2 cells (VP-MCC)
  Area under the dose-response curve (AUC) MKL-2 Replicate 1: 295.2
  Area under the dose-response curve (AUC) MKL-2 Replicate 2: 271.6
  Area under the dose-response curve (AUC) MKL-2 Replicate 3: 292.7

## N#CC(=C(/N)Sc1ccccc1N)/C(C#N)=C(\N)Sc1ccccc1N [U-0126]
MCC13 cells (VN-MCC); [1]
  Area under the dose-response curve (AUC) MCC13 Replicate 1: 475.9
MCC13 cells (VN-MCC); [2]
  Area under the dose-response curve (AUC) MCC13 Replicate 2: 463.7
MCC13 cells (VN-MCC); [3]
  Area under the dose-response curve (AUC) MCC13 Replicate 3: 403.4
MCC26 cells (VN-MCC); [4]
  Area under the dose-response curve (AUC) MCC26 Replicate 1: 467.3
MCC26 cells (VN-MCC); [5]
  Area under the dose-response curve (AUC) MCC26 Replicate 2: 454.7
MCC26 cells (VN-MCC); [6]
  Area under the dose-response curve (AUC) MCC26 Replicate 3: 472.7
UISO cells (VN-MCC); [7]
  Area under the dose-response curve (AUC) UISO Replicate 1: 414.2
UISO cells (VN-MCC); [8]
  Area under the dose-response curve (AUC) UISO Replicate 2: 403.9
UISO cells (VN-MCC); [9]
  Area under the dose-response curve (AUC) UISO Replicate 3: 361.8
WAGA cells (VP-MCC); [10]
  Area under the dose-response curve (AUC) WAGA Replicate 1: 550.5
WAGA cells (VP-MCC); [11]
  Area under the dose-response curve (AUC) WAGA Replicate 2: 484.0
WAGA cells (VP-MCC); [12]
  Area under the dose-response curve (AUC) WAGA Replicate 3: 458.9
MKL-1 cells (VP-MCC); [13]
  Area under the dose-response curve (AUC) MKL-1 Replicate 1: 488.8
MKL-1 cells (VP-MCC); [14]
  Area under the dose-response curve (AUC) MKL-1 Replicate 2: 473.7
MKL-1 cells (VP-MCC); [15]
  Area under the dose-response curve (AUC) MKL-1 Replicate 3: 468.2
MKL-2 cells (VP-MCC); [16]
  Area under the dose-response curve (AUC) MKL-2 Replicate 1: 434.1
MKL-2 cells (VP-MCC); [17]
  Area under the dose-response curve (AUC) MKL-2 Replicate 2: 447.4
MKL-2 cells (VP-MCC); [18]
  Area under the dose-response curve (AUC) MKL-2 Replicate 3: 479.4

## CCCC[C@@H](C)/C=C(C)/C=C(\C)C(=O)NC1=C[C@@](O)(/C=C/C=C/C=C/C(=O)NC2=C(O)CCC2=O)[C@@H]2O[C@@H]2C1=O [manumycin A]
MCC13 cells (VN-MCC)
  Area under the dose-response curve (AUC) MCC13 Replicate 1: 464.3
  Area under the dose-response curve (AUC) MCC13 Replicate 2: 477.8
  Area under the dose-response curve (AUC) MCC13 Replicate 3: 420.7
MCC26 cells (VN-MCC)
  Area under the dose-response curve (AUC) MCC26 Replicate 1: 416.4
  Area under the dose-response curve (AUC) MCC26 Replicate 2: 409.7
  Area under the dose-response curve (AUC) MCC26 Replicate 3: 443.4
UISO cells (VN-MCC)
  Area under the dose-response curve (AUC) UISO Replicate 1: 429.0
  Area under the dose-response curve (AUC) UISO Replicate 2: 434.7
  Area under the dose-response curve (AUC) UISO Replicate 3: 408.1
WAGA cells (VP-MCC)
  Area under the dose-response curve (AUC) WAGA Replicate 1: 424.6
  Area under the dose-response curve (AUC) WAGA Replicate 2: 379.9
  Area under the dose-response curve (AUC) WAGA Replicate 3: 418.7
MKL-1 cells (VP-MCC)
  Area under the dose-response curve (AUC) MKL-1 Replicate 1: 418.4
  Area under the dose-response curve (AUC) MKL-1 Replicate 2: 432.7
  Area under the dose-response curve (AUC) MKL-1 Replicate 3: 426.4
MKL-2 cells (VP-MCC)
  Area under the dose-response curve (AUC) MKL-2 Replicate 1: 385.8
  Area under the dose-response curve (AUC) MKL-2 Replicate 2: 395.8
  Area under the dose-response curve (AUC) MKL-2 Replicate 3: 389.6
